Measurements published in patent publication US20240041042A1, “1-(PYRIDYL)-5-AZINYLPYRAZOLE DERIVATIVES, AND THEIR USE FOR CONTROL OF UNDESIRED PLANT GROWTH” (Bayer Aktiengesellschaft, priority 2020, published 2024).

How the values were obtained:
Format in all cases: in vivo
Setaria viridis (SETVI) [1] = test: Post-emergence herbicidal action against SETVI; conditions: dosage 320 g/ha
Procedure, shortened: (§1)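 Rates were 320 g/ha or below, applied as aqueous WP/EC spray with 0.5% additive (600 l/ha) onto one-leaf-stage plants. About 3 weeks later in the greenhouse, damage was scored visually against untreated plants on a 0–100% scale, where 100% means plants died.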

Avena fatua (AVEFA) [2] = test: Post-emergence herbicidal action against AVEFA; conditions: visual rating about 3 weeks after treatment
Procedure, shortened: as §1

[3] = tested on: Echinochloa crus-galli (ECHCG); test: Pre-emergence herbicidal action against ECHCG; conditions: dosage 320 g/ha
Procedure, shortened: (§2)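 Herbicide applied to soil before seedling emergence, at 600 l/ha spray volume with 0.5% additive and rates up to 320 g/ha. Evaluation: visual percentage effect, about 3 weeks later, greenhouse-grown pots compared with untreated ones.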

Setaria viridis (SETVI) [4] = test: Pre-emergence herbicidal action against SETVI; conditions: dosage 320 g/ha
Procedure, shortened: as §2

Viola tricolor (VIOTR) [5] = test: Post-emergence herbicidal action against VIOTR
Procedure, shortened: as §1

Viola tricolor (VIOTR) [6] = test: Pre-emergence herbicidal action against VIOTR
Procedure, shortened: as §2

Lolium rigidum (LOLRI) [7] = test: Post-emergence herbicidal action against LOLRI
Procedure, shortened: as §1

[8] = tested on: Amaranthus retroflexus (AMARE); test: Post-emergence herbicidal action against AMARE
Procedure, shortened: as §1

[9] = tested on: Verconica persica (VERPE); test: Pre-emergence herbicidal action against VERPE; conditions: dosage 320 g/ha
Procedure, shortened: as §2

[10] = tested on: Amaranthus retroflexus (AMARE); test: Pre-emergence herbicidal action against AMARE; conditions: visual scoring after about 3 weeks vs untreated controls
Procedure, shortened: as §2

[11] = tested on: Echinochloa crus-galli (ECHCG); test: Post-emergence herbicidal action against ECHCG; conditions: dosage 320 g/ha
Procedure, shortened: as §1

[12] = tested on: Alopecurus myosuroides (ALOMY); test: Pre-emergence herbicidal action against ALOMY; conditions: scored visually after about 3 weeks, 100% = plants have died
Procedure, shortened: as §2

Lolium rigidum (LOLRI) [13] = test: Pre-emergence herbicidal action against LOLRI
Procedure, shortened: as §2

[14] = tested on: Matricaria inodora (MATIN); test: Pre-emergence herbicidal action against MATIN; conditions: dosage 320 g/ha
Procedure, shortened: as §2

[15] = tested on: Abutilon theophrasti (ABUTH); test: Pre-emergence herbicidal action against ABUTH; conditions: Dosage column 320 g/ha (title prints 3200 g/ha); scored visually after about 3 weeks; 100% = plants have died
Excerpt: Seeds of monocotyledonous and dicotyledonous weed plants and crop plants are placed in plastic or organic planting pots and covered with soil. The compounds of the invention, formulated in the form of wettable powders (WP) or as emulsion concentrates (EC), are then applied to the surface of the covering soil as aqueous suspension or emulsion with addition of 0.5% additive at a water application rate equivalent to 600 l/ha. After the treatment, the pots are placed in a greenhouse and kept under good growth conditions for the trial plants. After about 3 weeks, the effect of the preparations is scored visually in comparison with untreated controls as percentages. For example, 100% activity=the plants have died, 0% activity=like control plants.
Tables A1 to A13 below show the effects of selected compounds of the general formula (I) on various harmful plants and at an application rate corresponding to 320 g/ha or lower, which were obtained by the experimental procedure mentioned above. The appendices “a”, “b” and “c” give differentiation by dosage used with otherwise the same harmful plants tested.

[16] = tested on: Verconica persica (VERPE); test: Post-emergence herbicidal action against VERPE; conditions: 320 g/ha, VERPE
Procedure, shortened: as §1

[17] = tested on: Polygonum convolvulus (POLCO); test: Pre-emergence herbicidal action against POLCO
Procedure, shortened: as §2

Avena fatua (AVEFA) [18] = test: Pre-emergence herbicidal action against AVEFA; conditions: visual scoring after about 3 weeks vs untreated controls
Procedure, shortened: as §2

[19] = tested on: Alopecurus myosuroides (ALOMY); test: Post-emergence herbicidal action against ALOMY; conditions: visual rating about 3 weeks after treatment vs untreated controls (100% = plants have died, 0% = like control plants)
Procedure, shortened: as §1

[20] = tested on: Pharbitis purpurea (PHBPU); test: Post-emergence herbicidal action against PHBPU
Procedure, shortened: as §1

[21] = tested on: Pharbitis purpurea (PHBPU); test: Pre-emergence herbicidal action against PHBPU; conditions: dosage 320 g/ha
Procedure, shortened: as §2

[22] = tested on: Polygonum convolvulus (POLCO); test: Post-emergence herbicidal action against POLCO; conditions: dosage 320 g/ha
Procedure, shortened: as §1

For `C[C@@H](Oc1nn(-c2ccccn2)c(-c2cncnc2)c1Cl)C(=O)O` [Example I-20], the “Post-emergence action against SETVI in %” value (Setaria viridis (SETVI) [1]) was 90%, the “Post-emergence action against AVEFA in %” value (Avena fatua (AVEFA) [2]; 80 g/ha) was 90% and the “Post-emergence action against AVEFA in %” value (Avena fatua (AVEFA) [2]; 320 g/ha) was 90%. The “Pre-emergence action against ECHCG in %” value [3] was 100%, the “Pre-emergence action against SETVI in %” value (Setaria viridis (SETVI) [4]) was 100% and the “Post-emergence action against VIOTR in %” value (Viola tricolor (VIOTR) [5]; 80 g/ha) was 90%. For the same molecule, the “Post-emergence action against VIOTR in %” value (Viola tricolor (VIOTR) [5]; 320 g/ha) was 90%, the “Pre-emergence action against VIOTR in %” value (Viola tricolor (VIOTR) [6]; 320 g/ha, Viola tricolor) was 100% and the “Pre-emergence action against VIOTR in %” value (Viola tricolor (VIOTR) [6]; dosage 80 g/ha) was 100%. For the same molecule, the “Post-emergence action against LOLRI in %” value (Lolium rigidum (LOLRI) [7]; dosage 80 g/ha) was 90%, the “Post-emergence action against LOLRI in %” value (Lolium rigidum (LOLRI) [7]; dosage 320 g/ha) was 90% and the “Post-emergence action against AMARE in %” value ([8]; 80 g/ha, visual rating about 3 weeks after treatment vs untreated controls (100% = plants have died, 0% = like control plants)) was 90%. For the same molecule, the “Post-emergence action against AMARE in %” value ([8]; 320 g/ha, visual rating about 3 weeks after treatment) was 90%, the “Pre-emergence action against VERPE in %” value [9] was 100% and the “Pre-emergence action against AMARE in %” value ([10]; 80 g/ha) was 100%. The “Pre-emergence action against AMARE in %” value ([10]; 320 g/ha) was 100%, the “Post-emergence action against ECHCG in %” value [11] was 80% and the “Pre-emergence action against ALOMY” value ([12]; 80 g/ha) was 90%. The “Pre-emergence action against ALOMY” value ([12]; 320 g/ha) was 100%, the “Pre-emergence action against LOLRI in %” value (Lolium rigidum (LOLRI) [13]; dosage 80 g/ha) was 100% and the “Pre-emergence action against LOLRI in %” value (Lolium rigidum (LOLRI) [13]; dosage 320 g/ha) was 100%. The “Pre-emergence action against MATIN in %” value [14] was 100%, the “Pre-emergence action against ABUTH” value [15] was 90% and the “Post-emergence action against VERPE in %” value [16] was 80%. For the same molecule, the “Pre-emergence action against POLCO in %” value ([17]; dosage 80 g/ha) was 90%, the “Pre-emergence action against POLCO in %” value ([17]; dosage 320 g/ha) was 100% and the “Pre-emergence action against AVEFA in %” value (Avena fatua (AVEFA) [18]; 80 g/ha) was 90%. The “Pre-emergence action against AVEFA in %” value (Avena fatua (AVEFA) [18]; 320 g/ha) was 100%, the “Post-emergence action against ALOMY in %” value ([19]; 80 g/ha) was 100% and the “Post-emergence action against ALOMY in %” value ([19]; 320 g/ha) was 100%. For the same molecule, the “Post-emergence action against PHBPU in %” value ([20]; dosage 80 g/ha) was 90%, the “Post-emergence action against PHBPU in %” value ([20]; dosage 320 g/ha) was 90% and the “Pre-emergence action against PHBPU in %” value [21] was 90%. For the same molecule, the “Post-emergence action against POLCO in %” value [22] was 80%.
